According to the NIST ThermoML archive (doi:10.1016/j.jct.2008.08.013):
Numbers after ± are expanded uncertainties.

Details: 101.33 kPa, Liquid, Vibrating tube method

| SMILES | mass density (288.15 K) [kg/m3] | mass density (293.15 K) [kg/m3] | mass density (298.15 K) [kg/m3] | mass density (303.15 K) [kg/m3] |
| --- | --- | --- | --- | --- |
| Nc1ccccc1 [aniline] | 1025.93 ± 0.1 | 1021.04 ± 0.09 | 1017.1 ± 0.09 | 1012.84 ± 0.09 |
| ClCCl [dichloromethane] | 1334.81 ± 0.18 | 1325.67 ± 0.18 | 1316.58 ± 0.17 | 1307.9 ± 0.17 |
| O=[N+]([O-])c1ccccc1 [nitrobenzene] | 1211.53 ± 0.13 | 1202.61 ± 0.13 | 1198.01 ± 0.12 | 1193.5 ± 0.12 |
